Test results published in patent publication US20150119398A1, “FORM 2 POLYMORPH OF 7-(TERT-BUTYL-D9)-3-(2,5-DIFLUOROPHENYL)-6-((1-METHYL-1H-1,2,4-TRIAZOL-5-YL)METHOXY)-[1,2,4]TRIAZOLO[4,3-B]PYRIDAZINE” (Concert Pharmaceuticals Inc., priority 2012, published 2015).

Assays:
[1] = Dynamic Vapor Sorption (DVS) analysis; format: physicochemical; conditions: between 0-90% relative humidity, 25° C.
Description: Dynamic Vapor Sorption (DVS). DVS experiments were conducted on a Surface Measurement Systems DVS-HT at 25° C. The instrument was operated in step mode and the relative humidity was increased in 10% RH increments from 40% RH to 90% RH, then decreased from 90% RH to 0% RH, then increased from 0% RH to 90% RH, then decreased from 90% RH to 0% RH. An extra step at 75% RH was included in each cycle. The mass equilibrium criterion was set at 0.005% change in mass over time (dm/dt) prior to each humidity level. A minimum step time of 10 minutes and a maximum step time of 240 minutes were specified.

[2] = Physical stability of the crystal form on exposure to ambient conditions or elevated humidity; format: physicochemical

[2H]C([2H])([2H])C(c1cc2nnc(-c3cc(F)ccc3F)n2nc1OCc1ncnn1C)(C([2H])([2H])[2H])C([2H])([2H])[2H] [Form 2, 7-(tert-Butyl-d9)-3-(2,5-difluorophenyl)-6-((1-methyl-1H-1,2,4-triazol-5-yl)methoxy)-[1,2,4]triazolo[4,3-b]pyridazine]
weight gain by DVS [1]: up to 2.5 % wt
physical stability at elevated humidity (75% or 95% RH) ([2]; 75% or 95% RH, 5 days): physically stable
physical stability at 75-97% relative humidity ([2]; 75-97% relative humidity, five days): physically stable
physical stability at ambient conditions ([2]; ambient conditions, at least two weeks): physically stable
